Test results reported in patent publication US11298391B1, “Topical skin health improvement compositions and administrations thereof” (Lorenol Laboratories, Inc., priority 2017, dated 2022).

System: PGE-2
Assay: PGE-2 increase on UVR exposure: control, Retinol and Skin Therapeutic Composition 5 (FIG. 2)
Assay type: in vivo
Conditions: in the presence of UVR
Text: FIG. 2 illustrates an implementation of the reduction and/or inhibition of skin inflammation as a result of topical application of Skin Therapeutic Composition 5.
A night serum may be prepare including Skin Therapeutic Composition 5. FIG. 2 illustrates an implementation of the reduction and/or inhibition of skin inflammation as a result of topical application of Skin Therapeutic Composition 5. […] Skin Therapeutic 5 encourages collagen growth and inhibits the overproduction of PGE-2 when exposed to UVR.

Q: How did the PGE-2 change turn out when `CC1=C(/C=C/C(C)=C/C=C/C(C)=C/CO)C(C)(C)CCC1` [Retinol] was run?
A: The PGE-2 change was “increase in PGE-2”.
